Data reported in US20130317040A1, “METHODS FOR TREATING SYSTEMIC LUPUS ERYTHEMATOSUS USING HIV PROTEASE INHIBITORS” (The Feinstein Institute of Medical Research, priority 2010, published 2013).

Tests used:
[1] = test system: lupus anti-dsDNA monoclonal antibody, R4A; experiment: Competitive ELISA, R4A binding to bound DWEYS peptide; set-up: species or system mouse; conditions: for inhibition of R4A binding to D-DWEYS-5 peptide on ELISAs: R4A 2 μg/ml, 1 μM, 10 μM and 100 μM, highest concentrations showed the greatest inhibition; for inhibition of R4A binding, DWEYS: competitive ELISA, bound D-DWEYS, at the most effective concentration of compound
Method: (§1) To test whether these antiviral drugs might inhibit R4A binding, competitive ELISAs, with bound DWEYS peptide, bound dsDNA, or bound C1q protein, were performed. […] Activity in these ELISAs is predictive of binding activity with naturally occurring anti-dsDNA antibodies in lupus patients.
(§2) ELISAs. […] Antigens were absorbed to microtiter plate wells (either D-DWEYS (20 μg/ml) in PBS, calf thymus DNA (100 μg/ml) in NaHCO3 (0.1M, pH 8.6) or full length complement component C1q (10-20 μg/ml) in PBS) overnight at 37° C. […] The competitive ELISA was performed as described, using R4A monoclonal antibodies (2-20 μg/ml). […] The plates were washed and alkaline phosphatase-conjugated goat anti-mouse IgG antibody was added for 1 h at 37° C.

[2] = test system: lupus anti-dsDNA monoclonal antibody, R4A; experiment: Competitive ELISA, R4A binding to bound dsDNA (calf thymus DNA); set-up: species or system mouse; conditions: for inhibition of R4A binding, DNA: competitive ELISA, bound calf thymus DNA, at the most effective concentration of compound
Method: as §1, §2

[3] = test system: lupus anti-dsDNA monoclonal antibody, R4A; experiment: Competitive ELISA, R4A binding to bound C1q protein; set-up: species or system mouse; conditions: at the most effective concentration of compound
Method: as §1, §2

[4] = test system: mouse monoclonal anti-dsDNA antibody, R4A; experiment: Deposition of R4A to kidney glomeruli ex vivo; format: binding; conditions: detected with fluorescently-labeled secondary antibody
From the text: Nephrotoxicity: nelfinavir was also found to suppress pathologic deposition of mouse monoclonal anti-dsDNA antibody, […], to kidney glomeruli ex vivo. […] For methodology see Bloom, O. et al., (2011), PNAS 108:10255-10259 and Zhang, J. et al., (2009), J. Autoimmun. 33:270-274.

[5] = test system: lupus patient sera components binding to DNA (anti-dsDNA antibodies); experiment: ELISA, lupus patient sera binding to DNA; set-up: species or system human; conditions: compound at 1, 10 and 100 micromolar; sera from lupus patients with elevated anti-dsDNA titers
From the text: In early tests, inhibition of lupus patient sera components binding to DNA by nelfinavir was observed (data not shown). Sera, collected from lupus patients with moderately active disease and elevated titers of anti-dsDNA antibodies, was used for an ELISA assay for binding to DNA. The addition of nelfinavir in micromolar concentrations of 1, 10 and 100 decreased DNA binding by an average of 43%.

[6] = test system: R4A-induced apoptosis in the central nervous system; experiment: R4A-induced neurotoxicity in vivo, hippocampal injection, TUNEL staining; conditions: R4A pre-incubated with inhibitor 15 min at 37° C., injected into hippocampus; brain slices after 48 hours
Method: Neurotoxicity: protection from R4A-induced apoptosis in the central nervous system was assessed by TUNEL staining. […] R4A was pre-incubated with vehicle or HIV protease inhibitors for 15 min. at 37° C. The preparation was then stereotaxically injected into the hippocampus of test animals. After 48 hours, brain slices at the injection site were subjected to TUNEL staining. […] For methodology see Bloom, O. et al., (2011), supra, and Zhang, J. et al., (2009), supra.

[7] = in vivo; cited from earlier work
cytochrome P-450 enzymes = conditions: cited from earlier work
[8] = R4A 5 μg/ml, compound at 25 μM and 50 μM

| Compound | inhibition of R4A binding to D-DWEYS-5 peptide on ELISAs [1] | inhibition of R4A binding, DWEYS [1] [%] | inhibition of R4A binding, DNA [2] [%] | inhibition of R4A binding, C1q assay [3] [%] | R4A binding (deposition) to kidney glomeruli ex vivo [4] | inhibition of R4A binding to DWEYS peptide on ELISAs [1, 8] | inhibition of R4A binding to DNA on ELISAs [2, 8] | decrease of lupus patient sera DNA binding (average) [5] [%] | protection from R4A neurotoxicity (TUNEL staining) [6] | time until steady state of the drug is achieved [7] [days] | metabolizing cytochrome P-450 enzymes (cytochrome P-450 enzymes) |
| --- | --- | --- | --- | --- | --- | --- | --- | --- | --- | --- | --- |
| COC(=O)N[C@H](C(=O)N[C@@H](Cc1ccccc1)[C@@H](O)CN(Cc1ccc(-c2ccccn2)cc1)NC(=O)[C@@H](NC(=O)OC)C(C)(C)C)C(C)(C)C [Atazanavir, atazanavir] | improved inhibition | 46 | 38 | 64 | only nelfinavir decreased |  |  |  |  |  |  |
| Cc1cccc(C)c1OCC(=O)N[C@@H](Cc1ccccc1)[C@@H](O)C[C@H](Cc1ccccc1)NC(=O)[C@H](C(C)C)N1CCCNC1=O [Lopinavir, lopinavir] | improved inhibition | 56 | 32 | 38 | only nelfinavir decreased |  |  |  |  |  |  |
| CC(C)c1nc(CN(C)C(=O)N[C@H](C(=O)N[C@@H](Cc2ccccc2)C[C@H](O)[C@H](Cc2ccccc2)NC(=O)OCc2cncs2)C(C)C)cs1 [Ritonavir, ritonavir] |  | 8 | 0 | 13 |  |  |  |  |  |  |  |
| Cc1c(O)cccc1C(=O)N[C@@H](CSc1ccccc1)[C@H](O)CN1C[C@H]2CCCC[C@H]2C[C@H]1C(=O)NC(C)(C)C [nelfinavir] |  |  |  |  | decreased the R4A binding | Significant inhibition | Significant inhibition | 43 | block neurotoxicity | 6 | CYP3A4, CYP2C19, CYP2C9, and CYP2D6 |
| CC(C)(C)NC(=O)[C@@H]1C[C@@H]2CCCC[C@@H]2CN1C[C@@H](O)[C@H](Cc1ccccc1)NC(=O)[C@H](CC(N)=O)NC(=O)c1ccc2ccccc2n1 [Saquinavir, saquinavir] | improved inhibition | 33 | 31 | 54 | only nelfinavir decreased |  |  |  |  |  |  |
| CC(C)(C)NCC1CC2CCCCC2CN1CC(O)C(Cc1ccccc1)NCC(CCN)NCC1Nc2ccccc2CC1O (stereo not shown) [12W, 2-((4-amino-1-(4-(3-((tert-butylamino)methyl)octahydroisoquinolin-2(1H)-yl)-3-hydroxy-1-phenylbutan-2-ylamino)butan-2-ylamino)methyl)-1,2,3,4-tetrahydroquinolin-3-ol] |  | 31 | 32 | 18 |  |  |  |  |  |  |  |
| CC(C)CN(C[C@@H](O)[C@H](Cc1ccccc1)NC(=O)O[C@H]1CO[C@H]2OCC[C@H]21)S(=O)(=O)c1ccc(N)cc1 [Darunavir, darunavir] |  | 16 | 3 | 0 |  |  |  |  |  |  |  |
